Experimental data reported in patent US12473250B2, “Molecular design of new antibiotics and antibiotic adjuvants against MCR strains” (priority 2019, dated 2025).

Experiments:
Type in all cases: cell-based
various pathogens = assay: microbe, parasite or virus in culture
Experimental: (§1) The MICs of the individual drugs and LC compound in combinations were determined using the broth microdilution technique as recommended by the CLSI whereby the two anti-microbial agents were added in an equal amount. (e.g.: 50 μL of Colistin: 50 μL of LC compounds). Diluted media containing compounds and antibiotics will be serially diluted 2-fold, and LC compounds and antibiotics alone or in combination will be assayed at fixed synergy concentration. In all cases, the lowest concentration at which no visible growth occurred was be recorded to be the MIC value of individual and combined antibacterial agents. The results were obtained after 24 hours of incubation.
Using the combination of LC100 and colistin, the activity of a broad range of strains was further tested (Table 7).

[1] = test system: colistin resistant MCR (+) E. Coli strains; assay: MIC, broth microdilution, compound alone; conditions: colistin resistant bacteria; in words
Experimental: MIC experiments of the antimicrobial agents were determined by a modified broth microdilution method in accordance with the Clinical and Laboratory Standards Institute (CLSI) guidelines using 96 well culture plates. In brief, serial dilutions of all plates were prepared at different concentrations (μg). The inoculum suspension was prepared by adding isolated colonies from a 18-20 hours on TSA plate into phosphate buffer (0.31 mM, pH 7.2) or in water for injection (BBraun) and adjusting the suspension to a turbidity equivalent to 0.5 McFarland Standard. Each well contained a final bacterial concentration of approximately 5×10^5 colony forming units (CFU)/mL. The plate was covered and incubated at 35° C. for 24 hours. […] For the microdilution plates, turbidity in wells can be measured at OD600 using TECAN infinite M200Pro. MIC was determined as […] concentration that gives a 99 percent inhibition.

[2] = test system: colistin resistant MCR (+) E. Coli strains; assay: Synergy study: colistin MIC in the presence of compound; conditions: against mcr-1 bacteria
Experimental: as §1

[3] = Escherichia coli, 6083655967 [MCR 1+, E. Coli]
[4] = Escherichia coli, 6093560257 [MCR 1+, E. Coli, NDM-1]
[5] = Escherichia coli, 7023446108 [MCR 1−, E. Coli]
[6] = Escherichia coli, 7103531927 [MCR 1+, E. Coli, KPC+]
[7] = Escherichia coli, 7113636863 [MCR 1+, E. Coli, NDM-1]
[8] = Escherichia coli, E. Coli CRE 11804
[9] = Escherichia coli, E. Coli CRE 17528
[10] = Escherichia coli, E. Coli CRE 17232

SMILES | MIC (various pathogens; [3]) [µg/mL] | MIC (various pathogens; [4]) [µg/mL] | MIC (various pathogens; [5]) [µg/mL] | MIC (various pathogens; [6]) [µg/mL] | MIC (various pathogens; [7]) [µg/mL] | MIC (various pathogens; [8]) [µg/mL] | MIC (various pathogens; [9]) [µg/mL] | MIC (various pathogens; KLPN CRE 7955) [µg/mL] | MIC (various pathogens; KLPN CRE 16260) [µg/mL] | MIC (various pathogens; KLPN CRE 27025) [µg/mL] | MIC (various pathogens; KLPN CRE 55301) [µg/mL] | MIC (various pathogens; PAE DM 4150) [µg/mL] | MIC (various pathogens; PAE DM 23155) [µg/mL] | MIC (various pathogens; PAE DM 23257) [µg/mL] | MIC (various pathogens; PAE DM 23376) [µg/mL] | MIC (various pathogens; PAE DR 4877) [µg/mL] | MIC (various pathogens; PAE DU 14476) [µg/mL] | MIC (various pathogens; [10]) [µg/mL] | MIC (various pathogens; PAE DR 5790) [µg/mL] | further results
C[C@@H](O)[C@H]1C(=O)N2C(C(=O)O)=C(S[C@@H]3CN[C@H](CNS(N)(=O)=O)C3)[C@H](C)[C@H]12 [Doripenem] | < 0.0975 | 50 | 0.0975 | 1.56 | 25 | > 25 | 1.56 | > 25 | > 50 | 25 | 1.56 | 6.25 | 0.195 | 0.78 | 0.78 | 0.78 | > 25 |  |  | MIC (various pathogens; Escherichia coli, 6123520276 [MCR 1+, E. Coli]): < 0.0975 µg/mL; MIC (various pathogens; Escherichia coli, 7023436560 [MCR 1+, E. Coli]): < 0.0975 µg/mL; MIC (various pathogens; Escherichia coli, 7023444207 [MCR 1+, E. Coli]): < 0.0975 µg/mL; MIC (various pathogens; Escherichia coli, 7033607097 [MCR 1−, E. Coli]): < 0.0975 µg/mL; MIC (various pathogens; PAE DR 5790, ¼ MHB): 12.5 µg/mL
C[C@@H](O)[C@H]1C(=O)N2C(C(=O)O)=C(S[C@@H]3CN[C@H](C(=O)Nc4cccc(C(=O)O)c4)C3)[C@H](C)[C@H]12 [Ertapenem] |  | 25 |  | 12.5 | > 50 | 25 | > 25 | > 25 | > 50 |  | > 25 | > 25 | 12.5 | > 25 | > 25 | > 25 | > 25 | 1.56 | > 25 | 
CC1(C)C=Cc2c(ccc3c2OCC(c2ccc(OCCCCN(Cc4ccccn4)Cc4ccccn4)cc2OCCCCN(Cc2ccccn2)Cc2ccccn2)C3)O1 (stereo not drawn) [GLA-DPA] |  |  |  |  |  |  |  |  |  |  |  |  |  |  |  |  |  |  |  | antimicrobial activity when used alone [1]: limited antimicrobial activity; concentration at which the compound shows synergy with colistin [2]: 5 µg/mL; synergy with colistin ([2]; in words): restore the sensitivity of E. coli with mcr-1 to colistin
COc1c(N2CCNC(C)C2)c(F)cc2c(=O)c(C(=O)O)cn(C3CC3)c12 (stereo not drawn) [Gatifloxacin] | 12.5 | 0.78 | 3.12 | < 0.0975 | 50 | < 0.015 | 25 | 100 | 3.12 | 3.12 | 25 |  | 1.56 | 0.78 | 1.56 | 25 | 25 | 12.5 | 25 | MIC (various pathogens; ACBA 1003 (CI)): 12.5 µg/mL; MIC (various pathogens; ACBA 1004 (CI)): 12.5 µg/mL; MIC (various pathogens; ACBA 1005 (CI)): 6.25 µg/mL; MIC (various pathogens; ACBA 1006 (CI)): 6.25 µg/mL; MIC (various pathogens; ACBA 1010 (CI)): < 0.098 µg/mL; MIC (various pathogens; Escherichia coli, ATCC8739, E. Coli ATCC 8739): 0.024 µg/mL; MIC (various pathogens; Escherichia coli, ATCC10536, E. Coli ATCC 10536): 0.012 µg/mL; MIC (various pathogens; Escherichia coli, ATCC25922, E. Coli ATCC 25922): 0.012 µg/mL; MIC (various pathogens; Escherichia coli, E. Coli CRE 19211): 25 µg/mL; MIC (various pathogens; Escherichia coli, E. Coli CRE 34685): 0.195 µg/mL; MIC (various pathogens; KLPN ATCC 4352): < 0.049 µg/mL; MIC (various pathogens; KLPN ATCC 10031): < 0.049 µg/mL; MIC (various pathogens; KLPN ATCC 27736): < 0.049 µg/mL; MIC (various pathogens; KLPN CRE 15588): 25 µg/mL; MIC (various pathogens; PAE ATCC 9027): 0.78 µg/mL; MIC (various pathogens; PAE ATCC 27853): 1.56 µg/mL
